# From ChEMBL document CHEMBL1201862, “PubChem BioAssay data set” (2004)
# Calls of active or inactive are those of the source.
# Key:
# [1] = system: Streptococcus sp. 'group A'; test: growth inhibition of control SK(-) GAS strain, dose response, counter-screen for streptokinase expression inhibitor project, luminescence, kanamycin, BacTiterGlo, confirmation (AID 1900); type: functional, organism-based
# cells [2] = type: functional, cell-based
# cells [3] = type: functional, cell-based; remark: listed apart in the source
# Streptococcus = test: Group A Streptococcus viability loss, dose response, counter-screen for streptokinase expression inhibitor project, luminescence, BacTiterGlo (AID 1915); type: functional, organism-based;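 also: potency for reduction of bacterial viability or growth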
# Albumin = Albumin (Bos taurus, UniProt P02769); test: Counterscreen for inhibitors of T-cell receptor (TCR)-CD3 interaction: Fluorescence-based biochemical high throughput dose response assay to identify inhibitors of T-cell receptor (TCR)-CD3 interaction using a TAMRA-labeled BSA probe.; type: functional
# Chain of Albumin (P02769 whole entry): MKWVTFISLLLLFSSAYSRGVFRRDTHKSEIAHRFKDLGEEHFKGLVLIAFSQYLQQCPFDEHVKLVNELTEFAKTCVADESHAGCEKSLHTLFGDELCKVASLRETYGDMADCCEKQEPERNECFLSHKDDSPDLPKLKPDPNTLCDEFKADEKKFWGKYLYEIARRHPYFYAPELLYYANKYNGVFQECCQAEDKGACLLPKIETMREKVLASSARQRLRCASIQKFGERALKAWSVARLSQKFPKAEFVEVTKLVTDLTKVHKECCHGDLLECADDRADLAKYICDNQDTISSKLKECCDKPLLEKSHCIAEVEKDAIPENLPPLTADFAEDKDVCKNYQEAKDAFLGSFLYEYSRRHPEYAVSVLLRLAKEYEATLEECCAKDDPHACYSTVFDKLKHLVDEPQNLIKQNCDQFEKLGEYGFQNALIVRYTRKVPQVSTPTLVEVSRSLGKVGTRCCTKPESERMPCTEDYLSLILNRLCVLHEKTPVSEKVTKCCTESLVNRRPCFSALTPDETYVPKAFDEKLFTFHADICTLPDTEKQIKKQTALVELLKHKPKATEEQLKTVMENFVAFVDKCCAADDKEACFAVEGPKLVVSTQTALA
# [4] = Luminescence Cell-Based Dose Confirmation HTS to Identify Activators of 5'UTR Stem-Loop Driven Alpha-Synuclein mRNA Translation in H4 Neuroglioblastoma Cells. [Related pubchem assays: 1829 (Project Summary), 1814 (Primary HTS)]; type: functional
# [5] = Luminescence Cell-Based Dose Response HTS to Identify Activators of Luciferase Translation or Activity in H4 […] Cells. [Related pubchem assays: 1829 (Project Summary), 1814 (Primary HTS)]; type: functional
# H4 = test: Luminescence Cell-Based Dose Response HTS to Identify Activators of 5'UTR Stem-Loop Driven Prion Protein mRNA Translation in H4 Neuroglioblastoma Cells. [Related pubchem assays: 1829 (Project Summary), 1814 (Primary HTS)]; type: functional; conditions: Homo sapiens
# [6] = THP-1 cell cytotoxicity, dose response, cytotoxicity control for non-replicating M. tuberculosis project (AID 489025); type: functional
# [7] = Vero E6 cell cytotoxicity, dose response, cytotoxicity control for non-replicating M. tuberculosis project, secondary assay (AID 492998); type: functional, VeroE6; conditions: Vero C1008
# [8] = molecular target: FAD-linked sulfhydryl oxidase ALR (Homo sapiens, UniProt P55789); test: inhibitors of human ALR sulfhydryl oxidase, dose response, biochemical, H2O2 detection, luminescence, cherry-pick (AID 493248)
# Chain of FAD-linked sulfhydryl oxidase ALR (P55789 whole entry): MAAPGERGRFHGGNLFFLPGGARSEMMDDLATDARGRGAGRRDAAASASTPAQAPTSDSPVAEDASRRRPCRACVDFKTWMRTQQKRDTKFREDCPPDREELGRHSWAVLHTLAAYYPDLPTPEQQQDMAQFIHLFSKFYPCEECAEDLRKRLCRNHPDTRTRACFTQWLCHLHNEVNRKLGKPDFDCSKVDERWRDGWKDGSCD
# cells [9] = type: functional
# [10] = molecular target: Heat shock protein HSP 90-alpha (Homo sapiens, UniProt P07900); type: functional, organism-based
# [11] = HeLa cell cytotoxicity, dose response, cytotoxicity control for MgcRacGAP inhibitor project (AID 624300); type: functional
# [12] = molecular target: T1, Rac GTPase-activating protein 1 (Homo sapiens, UniProt Q9H0H5); test: MgcRacGAP GTPase-activating activity inhibitors, confirmation, biochemical, ADP Hunter fluorescence, primary and confirmatory (AID 624330); type: functional
# T1 sequence (Q9H0H5 whole entry): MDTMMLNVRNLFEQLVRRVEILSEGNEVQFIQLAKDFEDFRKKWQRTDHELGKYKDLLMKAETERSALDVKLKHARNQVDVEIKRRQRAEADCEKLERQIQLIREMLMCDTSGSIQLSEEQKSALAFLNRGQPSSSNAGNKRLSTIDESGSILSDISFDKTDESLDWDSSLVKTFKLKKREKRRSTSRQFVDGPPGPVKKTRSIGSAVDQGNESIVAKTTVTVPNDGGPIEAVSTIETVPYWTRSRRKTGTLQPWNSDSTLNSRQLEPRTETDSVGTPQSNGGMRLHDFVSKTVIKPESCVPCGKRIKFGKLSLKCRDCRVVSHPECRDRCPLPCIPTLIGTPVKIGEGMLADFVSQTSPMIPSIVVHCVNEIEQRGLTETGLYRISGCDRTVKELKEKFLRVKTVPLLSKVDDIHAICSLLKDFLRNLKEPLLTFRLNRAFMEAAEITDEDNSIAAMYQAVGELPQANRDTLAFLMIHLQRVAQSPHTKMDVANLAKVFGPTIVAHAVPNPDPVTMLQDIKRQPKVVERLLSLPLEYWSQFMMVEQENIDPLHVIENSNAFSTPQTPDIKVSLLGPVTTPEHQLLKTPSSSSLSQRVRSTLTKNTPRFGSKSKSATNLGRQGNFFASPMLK
# [13] = inhibitors of firefly luciferase expression or activity, dose response, H4 neuroglioma cells, luminescence (AID 1990); type: functional, cell-based
# [14] = Luminescence Cell-Based Dose Response HTS to Identify Inhibitors of 5'UTR Stem-Loop Driven Prion Protein mRNA Translation in H4 Neuroglioblastoma Cells. [Related pubchem assays: 1827 (Project Summary), 1813 (Primary HTS)]; type: functional
# [15] = inhibitors of SNCA 5'UTR-driven reporter translation, confirmation, H4 neuroglioma cells, luminescence (AID 1988); type: functional, cell-based
# Leucine aminopeptidase = molecular target: T2, Leucine aminopeptidase (Plasmodium falciparum 3D7, UniProt Q8IL11); test: P. falciparum M17LAP inhibitors, primary screen, biochemical, fluorogenic H-Leu-NHMec substrate, 1536-well (AID 1619); type: functional
# T2 sequence (Q8IL11 whole entry): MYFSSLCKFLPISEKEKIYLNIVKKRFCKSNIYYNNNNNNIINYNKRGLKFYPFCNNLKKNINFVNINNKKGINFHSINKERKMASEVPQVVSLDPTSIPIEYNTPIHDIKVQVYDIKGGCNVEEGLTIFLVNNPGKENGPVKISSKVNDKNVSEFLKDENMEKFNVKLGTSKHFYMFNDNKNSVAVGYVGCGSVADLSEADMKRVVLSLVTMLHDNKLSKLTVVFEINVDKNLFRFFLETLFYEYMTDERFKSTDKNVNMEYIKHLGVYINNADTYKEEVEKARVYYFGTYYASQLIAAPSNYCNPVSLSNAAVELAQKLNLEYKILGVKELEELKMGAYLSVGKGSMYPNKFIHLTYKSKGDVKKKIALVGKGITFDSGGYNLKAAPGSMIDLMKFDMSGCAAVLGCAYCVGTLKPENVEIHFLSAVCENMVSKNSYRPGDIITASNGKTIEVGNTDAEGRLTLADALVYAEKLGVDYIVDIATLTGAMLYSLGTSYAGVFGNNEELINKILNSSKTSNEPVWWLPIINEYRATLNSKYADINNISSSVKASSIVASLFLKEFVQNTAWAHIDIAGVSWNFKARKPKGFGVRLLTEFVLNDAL
# [16] = molecular target: Mitogen-activated protein kinase 10 (Homo sapiens, UniProt P53779); test: Dose response biochemical screening assay for inhibitors of c-Jun N-Terminal Kinase 3 (JNK3). [Related pubchem assays: 746 ]
# Chain of Mitogen-activated protein kinase 10 (P53779 whole entry): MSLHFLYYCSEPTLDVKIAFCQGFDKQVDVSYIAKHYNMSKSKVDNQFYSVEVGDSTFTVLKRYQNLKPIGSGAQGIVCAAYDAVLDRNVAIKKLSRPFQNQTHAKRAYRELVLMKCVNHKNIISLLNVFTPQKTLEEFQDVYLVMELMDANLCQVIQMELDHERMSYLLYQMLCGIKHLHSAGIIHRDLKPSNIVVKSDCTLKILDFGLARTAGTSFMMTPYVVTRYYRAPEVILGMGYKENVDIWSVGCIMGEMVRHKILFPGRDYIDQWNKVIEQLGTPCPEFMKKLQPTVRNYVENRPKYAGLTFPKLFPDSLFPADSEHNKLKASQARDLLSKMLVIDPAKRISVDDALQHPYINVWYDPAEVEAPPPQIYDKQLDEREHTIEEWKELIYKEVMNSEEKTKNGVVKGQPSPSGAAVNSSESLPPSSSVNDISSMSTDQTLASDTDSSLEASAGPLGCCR
# Caspase-6 = molecular target: T3, Caspase-6 (Homo sapiens, UniProt P55212); test: human caspase-6 inhibitors, dose response, biochemical, VEID-R110 fluorescence, cherry-pick (AID 720632)
# T3 sequence (P55212 whole entry): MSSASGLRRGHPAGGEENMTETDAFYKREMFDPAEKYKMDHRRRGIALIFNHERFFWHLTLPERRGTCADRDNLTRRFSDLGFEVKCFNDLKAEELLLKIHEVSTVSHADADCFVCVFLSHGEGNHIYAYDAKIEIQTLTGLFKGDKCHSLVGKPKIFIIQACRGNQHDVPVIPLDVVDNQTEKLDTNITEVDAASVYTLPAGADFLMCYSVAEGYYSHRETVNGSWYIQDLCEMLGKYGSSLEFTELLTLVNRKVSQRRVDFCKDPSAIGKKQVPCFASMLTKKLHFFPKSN
# [17] = A549 cell cytotoxicity, dose response, cytotoxicity control, plate reader, cherry-pick, antagonist series (AID 743412); type: functional, cell-based
# [18] = LGR2 antagonists, dose response, cell-based, HEK293, CRE-luciferase reporter, cherry pick, set 2 (AID 743343); type: functional;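 also: transfected cells were stimulated with diluted bursicon conditioned medium after compound addition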
# [19] = MC4R antagonists, dose response, counter-screen for LGR2 antagonist project, cell-based, plate reader, cherry pick (AID 743444); type: functional;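 also: transfected HEK 293 cells stimulated with alpha-MSH peptide; potency of inhibitors of the alpha-MSH evoked signal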
# [20] = molecular target: T4, Histone-lysine N-methyltransferase NSD2 (Homo sapiens, UniProt O96028); type: biochemical
# T4 sequence (O96028 whole entry): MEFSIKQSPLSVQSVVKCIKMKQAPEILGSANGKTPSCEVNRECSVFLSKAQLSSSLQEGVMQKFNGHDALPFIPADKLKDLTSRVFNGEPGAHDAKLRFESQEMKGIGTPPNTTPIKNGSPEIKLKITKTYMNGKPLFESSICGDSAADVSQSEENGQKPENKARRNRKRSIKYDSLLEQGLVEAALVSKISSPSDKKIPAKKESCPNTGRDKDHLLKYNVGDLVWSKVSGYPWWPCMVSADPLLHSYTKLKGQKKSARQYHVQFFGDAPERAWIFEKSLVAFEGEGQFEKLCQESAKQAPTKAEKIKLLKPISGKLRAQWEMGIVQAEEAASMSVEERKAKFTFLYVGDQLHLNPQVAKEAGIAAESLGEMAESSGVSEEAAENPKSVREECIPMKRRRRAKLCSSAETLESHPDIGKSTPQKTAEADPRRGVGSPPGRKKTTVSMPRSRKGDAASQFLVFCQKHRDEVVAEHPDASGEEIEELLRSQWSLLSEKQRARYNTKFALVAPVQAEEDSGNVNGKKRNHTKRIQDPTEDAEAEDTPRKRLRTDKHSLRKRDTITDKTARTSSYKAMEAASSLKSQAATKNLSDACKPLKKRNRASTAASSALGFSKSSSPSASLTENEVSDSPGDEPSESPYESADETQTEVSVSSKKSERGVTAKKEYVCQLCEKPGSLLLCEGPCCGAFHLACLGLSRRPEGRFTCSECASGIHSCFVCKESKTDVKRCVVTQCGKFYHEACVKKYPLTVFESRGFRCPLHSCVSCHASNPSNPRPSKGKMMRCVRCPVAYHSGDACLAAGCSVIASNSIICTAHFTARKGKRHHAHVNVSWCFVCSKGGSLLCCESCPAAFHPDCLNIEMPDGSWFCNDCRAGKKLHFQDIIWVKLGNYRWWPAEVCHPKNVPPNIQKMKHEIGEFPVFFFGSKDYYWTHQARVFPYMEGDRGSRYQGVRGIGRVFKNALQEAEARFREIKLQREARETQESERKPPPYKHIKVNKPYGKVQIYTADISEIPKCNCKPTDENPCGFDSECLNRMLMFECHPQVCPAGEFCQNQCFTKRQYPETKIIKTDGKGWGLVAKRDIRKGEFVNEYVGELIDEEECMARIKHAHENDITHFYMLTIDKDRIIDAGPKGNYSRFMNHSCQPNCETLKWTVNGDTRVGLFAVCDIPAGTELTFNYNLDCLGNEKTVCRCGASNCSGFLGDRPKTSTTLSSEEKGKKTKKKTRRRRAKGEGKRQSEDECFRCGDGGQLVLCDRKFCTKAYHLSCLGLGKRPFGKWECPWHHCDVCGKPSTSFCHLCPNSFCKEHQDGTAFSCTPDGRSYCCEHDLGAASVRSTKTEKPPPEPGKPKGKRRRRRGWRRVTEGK
# [21] = molecular target: T5, Tyrosyl-DNA phosphodiesterase 2 (Homo sapiens, UniProt O95551); test: human TDP2 enzyme inhibitors, dose response, biochemical, epi absorbance, IC50 (AID 743297)
# T5 sequence (O95551 whole entry): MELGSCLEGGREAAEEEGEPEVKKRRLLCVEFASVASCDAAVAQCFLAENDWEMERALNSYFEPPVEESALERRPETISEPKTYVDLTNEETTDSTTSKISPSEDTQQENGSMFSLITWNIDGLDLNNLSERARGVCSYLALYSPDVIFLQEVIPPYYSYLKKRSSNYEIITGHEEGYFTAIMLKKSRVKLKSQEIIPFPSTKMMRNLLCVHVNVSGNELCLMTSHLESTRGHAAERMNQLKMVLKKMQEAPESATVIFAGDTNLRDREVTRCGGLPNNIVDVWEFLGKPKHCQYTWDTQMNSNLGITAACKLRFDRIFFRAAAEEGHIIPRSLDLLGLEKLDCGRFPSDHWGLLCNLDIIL
smiles,measurement,setting,value
Cc1nc2ccccc2c(=O)n1/N=C/c1cc(Br)cc(Br)c1O,EC50,[1],5.09 µM (active)
same,EC50,cells [2],> 350 µM (not active)
same,EC50,cells [3],> 350 µM (not active)
same,EC50,Streptococcus,8.18 µM (active)
same,IC50,Albumin,> 94.1 µM (inactive)
COc1ccc(/C(C#N)=C2C=C/C(=N/O)C=C/2)cc1,EC50,[4],16.7 µM (active)
same,EC50,[5],14.5 µM (active)
same,EC50,H4,17.6 µM (active)
same,CC50,[6],13 µM (active)
same,CC50,[7],13.3 µM (active)
same,AC50,[8],5.88 µM (active)
same,IC50,cells [9],44.8 µM (active)
same,AC50,[10],4.64 µM (active)
same,CC50,[11],89.3 µM (active)
same,IC50,[12],93 µM (active)
CCCCCCn1c(=O)c(C(=O)Nc2ncccc2O)c(O)c2ccccc21,EC50,[13],10.7 µM (active)
same,EC50,[14],22.7 µM (active)
same,EC50,[15],9.12 µM (active)
same,IC50,Albumin,> 94.2 µM (inactive)
CCOc1ccc(NC(=O)CN2C(=O)C3CCCN3C2=O)cc1 (stereo not drawn),IC50,Leucine aminopeptidase,3.23 µM (active)
same,IC50,[16],> 93.1 µM (not active)
O=S(=O)(c1ccc2c(c1)OCCO2)N1CCC(n2cnc3cc(F)ccc32)CC1,IC50,[16],49.4 µM (not active)
O=C(Cn1cnc([N+](=O)[O-])n1)c1ccc(O)c(O)c1,AC50,Caspase-6,43.9 µM (active)
O=C1CC(c2ccc3c(c2)OCO3)Sc2nc3ccccc3n21 (stereo not drawn),AC50,[17],> 52 µM (inactive)
same,AC50,[18],13.1 µM (active)
same,AC50,[19],11.2 µM (active)
CC(=O)N1CCn2c3c(c(=O)c4cc(C)ccc42)CCC31 (stereo not drawn),AC50,[20],7.99 µM (active)
same,IC50,[21],43.5 µM (inactive)
